Measured values from US5300304A, “Pulsatile once-a-day delivery systems for minocycline” (priority 1992, dated 1994).
Like-named read-outs stand apart in the source and are kept apart here.

Experiments:
[1] = tested on: gram-negative and gram-positive bacteria; conditions: PDR 43rd Ed.; cited from earlier work
[2] = taken without food; cited from earlier work

## CN(C)c1ccc(O)c2c1C[C@H]1C[C@H]3[C@H](N(C)C)C(=O)C(C(N)=O)=C(O)[C@@]3(O)C(=O)C1=C2O [minocycline, 7-dimethylamino-6-deoxy-6-demethyltetracycline]
duodenum, based upon 100 percent absorption in the stomach
  bioavailability of minocycline in the gastrointestinal tract: 106%
Human patients, intubation
  absorption in the lower gastrointestinal tract: reduced absorption
ileum, based upon 100 percent absorption in the stomach
  bioavailability of minocycline in the gastrointestinal tract: 58%
jejunum, based upon 100 percent absorption in the stomach
  bioavailability of minocycline in the gastrointestinal tract: 80%
stomach, reference (100 percent absorption in the stomach)
  bioavailability of minocycline in the gastrointestinal tract: 100%
[1]
  organisms susceptible to minocycline therapy: wide range of gram-negative and gram-positive bacteria
[2]
  half life: approximately 10 hours
